Tests used:
PI3Kγ = PI3Kγ (Homo sapiens, UniProt P48736); test: X-ray cocrystal structure ([…] Å); purified kinase assay IC50; format: biochemical; set-up: gene PIK3CG; S144-A1102
HER2 = target: T1, HER2 (Homo sapiens, UniProt P04626); test: biochemical; set-up: Purified kinase inhibition, Z'-LYTE (HER, mTOR, DNA-PK) or Adapta (PI3K), ATP at Km apparent
T1 construct: gene ERBB2; Km ATP
Description: (§1) IC50 values were determined at a concentration of ATP corresponding to the Km apparent for that kinase.

PI3Kβ = target: T2, PI3Kβ (Homo sapiens, UniProt P42338); test: biochemical; set-up: Purified kinase inhibition, Z'-LYTE (HER, mTOR, DNA-PK) or Adapta (PI3K), ATP at Km apparent
T2 construct: gene PIK3CB; Km ATP
T2 sequence (P42338 whole entry): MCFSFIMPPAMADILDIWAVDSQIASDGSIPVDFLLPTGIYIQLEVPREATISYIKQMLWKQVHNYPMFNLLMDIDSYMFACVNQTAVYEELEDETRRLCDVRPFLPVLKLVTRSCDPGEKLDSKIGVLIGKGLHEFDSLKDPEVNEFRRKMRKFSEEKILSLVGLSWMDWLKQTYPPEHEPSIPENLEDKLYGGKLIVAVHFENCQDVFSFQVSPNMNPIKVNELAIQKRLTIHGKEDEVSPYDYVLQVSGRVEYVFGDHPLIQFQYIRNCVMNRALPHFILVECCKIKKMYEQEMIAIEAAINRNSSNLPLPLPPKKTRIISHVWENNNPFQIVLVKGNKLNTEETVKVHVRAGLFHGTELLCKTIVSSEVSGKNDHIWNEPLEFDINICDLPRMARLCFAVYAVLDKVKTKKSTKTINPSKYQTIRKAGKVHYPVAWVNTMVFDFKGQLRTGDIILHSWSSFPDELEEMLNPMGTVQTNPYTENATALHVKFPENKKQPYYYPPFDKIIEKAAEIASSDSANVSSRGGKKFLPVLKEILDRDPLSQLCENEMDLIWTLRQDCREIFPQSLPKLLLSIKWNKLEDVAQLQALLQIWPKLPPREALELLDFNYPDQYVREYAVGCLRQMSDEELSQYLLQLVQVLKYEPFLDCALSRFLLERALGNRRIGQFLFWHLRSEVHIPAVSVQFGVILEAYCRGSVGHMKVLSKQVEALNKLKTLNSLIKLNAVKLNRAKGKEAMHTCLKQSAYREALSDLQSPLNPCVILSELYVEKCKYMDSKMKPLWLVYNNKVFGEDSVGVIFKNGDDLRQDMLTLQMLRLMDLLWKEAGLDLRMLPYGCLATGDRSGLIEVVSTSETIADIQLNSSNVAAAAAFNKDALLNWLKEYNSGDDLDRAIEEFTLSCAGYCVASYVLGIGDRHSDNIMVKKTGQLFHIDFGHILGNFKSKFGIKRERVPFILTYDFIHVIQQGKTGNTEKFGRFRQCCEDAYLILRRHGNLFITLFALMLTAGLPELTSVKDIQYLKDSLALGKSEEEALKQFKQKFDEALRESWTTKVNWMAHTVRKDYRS
T2 sequence (P27986 whole entry partner): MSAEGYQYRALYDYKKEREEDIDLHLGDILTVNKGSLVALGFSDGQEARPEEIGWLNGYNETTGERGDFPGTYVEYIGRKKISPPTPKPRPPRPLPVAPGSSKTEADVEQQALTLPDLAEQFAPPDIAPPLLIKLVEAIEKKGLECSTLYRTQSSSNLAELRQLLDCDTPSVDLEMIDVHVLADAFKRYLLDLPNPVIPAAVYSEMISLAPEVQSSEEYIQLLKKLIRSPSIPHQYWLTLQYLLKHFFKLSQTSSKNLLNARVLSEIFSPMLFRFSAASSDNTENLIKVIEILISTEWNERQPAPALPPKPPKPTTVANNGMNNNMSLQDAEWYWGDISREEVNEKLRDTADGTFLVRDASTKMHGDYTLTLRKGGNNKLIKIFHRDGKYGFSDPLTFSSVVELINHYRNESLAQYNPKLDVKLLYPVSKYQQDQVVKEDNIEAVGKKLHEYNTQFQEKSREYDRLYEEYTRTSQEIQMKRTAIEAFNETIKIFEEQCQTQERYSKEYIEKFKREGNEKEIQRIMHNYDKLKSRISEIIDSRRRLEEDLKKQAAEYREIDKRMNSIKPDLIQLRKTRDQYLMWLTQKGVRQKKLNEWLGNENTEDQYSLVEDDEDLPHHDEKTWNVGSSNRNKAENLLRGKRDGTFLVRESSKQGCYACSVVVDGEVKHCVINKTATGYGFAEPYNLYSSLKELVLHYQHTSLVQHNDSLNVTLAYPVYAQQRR
Description: as §1

HER4 = target: T3, HER4 (Homo sapiens, UniProt Q15303); test: biochemical; set-up: Purified kinase inhibition, Z'-LYTE (HER, mTOR, DNA-PK) or Adapta (PI3K), ATP at Km apparent
T3 construct: gene ERBB4; Km ATP
Description: as §1

mTOR = target: T4, mTOR (Homo sapiens, UniProt P42345); test: biochemical; set-up: Purified kinase inhibition, Z'-LYTE (HER, mTOR, DNA-PK) or Adapta (PI3K), ATP at Km apparent
T4 construct: Km ATP
Description: as §1

[1] = target: T5, D2L (h) (antagonist radioligand) (Homo sapiens, UniProt P14416); test: biochemical; conditions: read-out: Binding / ================================================= / % Inhibition of Control Specific Binding
T5 construct: gene DRD2

[2] = target: T6, alpha 1B (h) (antagonist radioligand) (Homo sapiens, UniProt P35368); test: biochemical; conditions: read-out: Binding / ================================================= / % Inhibition of Control Specific Binding
T6 construct: gene ADRA1B
T6 sequence (P35368 whole entry): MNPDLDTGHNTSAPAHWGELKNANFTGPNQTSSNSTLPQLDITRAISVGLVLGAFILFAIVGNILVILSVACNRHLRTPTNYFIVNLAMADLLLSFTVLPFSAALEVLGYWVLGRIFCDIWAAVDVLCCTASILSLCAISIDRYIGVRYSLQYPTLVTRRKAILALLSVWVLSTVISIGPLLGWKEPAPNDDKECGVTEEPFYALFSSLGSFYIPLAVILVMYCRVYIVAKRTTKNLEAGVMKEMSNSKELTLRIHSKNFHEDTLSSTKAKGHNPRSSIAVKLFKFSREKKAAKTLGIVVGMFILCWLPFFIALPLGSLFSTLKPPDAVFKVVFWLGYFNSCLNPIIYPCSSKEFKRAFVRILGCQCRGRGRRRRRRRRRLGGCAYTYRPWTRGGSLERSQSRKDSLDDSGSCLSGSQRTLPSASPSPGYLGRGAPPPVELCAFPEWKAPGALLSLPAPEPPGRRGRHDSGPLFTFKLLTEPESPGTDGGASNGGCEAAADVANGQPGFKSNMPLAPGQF

[3] = target: T7, V1a (h) (agonist radioligand) (Homo sapiens, UniProt P37288); test: biochemical; conditions: read-out: Binding / ================================================= / % Inhibition of Control Specific Binding
T7 construct: gene AVPR1A

[4] = target: T8, dopamine transporter (h) (antagonist radioligand) (Homo sapiens, UniProt Q01959); test: biochemical; conditions: read-out: Binding / ================================================= / % Inhibition of Control Specific Binding
T8 construct: gene SLC6A3

[5] = target: T9, Y1 (h) (agonist radioligand) (Homo sapiens, UniProt P25929); test: biochemical; conditions: read-out: Binding / ================================================= / % Inhibition of Control Specific Binding
T9 construct: gene NPY1R

[6] = target: T10, PAF (h) (agonist radioligand) (Homo sapiens, UniProt P25105); test: biochemical; conditions: read-out: Binding / ================================================= / % Inhibition of Control Specific Binding
T10 construct: gene PTAFR
T10 sequence (P25105 whole entry): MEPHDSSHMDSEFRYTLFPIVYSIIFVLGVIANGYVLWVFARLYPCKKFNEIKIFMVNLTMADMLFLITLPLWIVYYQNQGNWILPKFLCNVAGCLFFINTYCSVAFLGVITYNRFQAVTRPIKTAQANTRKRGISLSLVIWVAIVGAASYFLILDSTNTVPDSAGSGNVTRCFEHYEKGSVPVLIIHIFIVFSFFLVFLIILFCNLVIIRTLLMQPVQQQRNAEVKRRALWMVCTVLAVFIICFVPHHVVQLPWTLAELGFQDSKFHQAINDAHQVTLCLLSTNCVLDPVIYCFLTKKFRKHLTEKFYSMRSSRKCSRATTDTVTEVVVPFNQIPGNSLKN

[7] = target: T11, MC1 (agonist radioligand) (Mus musculus, UniProt Q01727); test: biochemical; conditions: read-out: Binding / ================================================= / % Inhibition of Control Specific Binding
T11 construct: gene Mc1r
T11 sequence (Q01727 whole entry): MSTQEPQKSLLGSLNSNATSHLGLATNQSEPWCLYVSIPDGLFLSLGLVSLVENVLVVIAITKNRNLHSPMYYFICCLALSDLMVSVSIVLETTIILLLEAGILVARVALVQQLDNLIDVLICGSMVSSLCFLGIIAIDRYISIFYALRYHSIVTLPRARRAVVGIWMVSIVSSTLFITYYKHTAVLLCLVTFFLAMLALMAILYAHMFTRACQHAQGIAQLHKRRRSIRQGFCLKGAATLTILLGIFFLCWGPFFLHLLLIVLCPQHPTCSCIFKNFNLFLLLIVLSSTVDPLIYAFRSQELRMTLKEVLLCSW

[8] = target: AR(h) (agonist radioligand) (Homo sapiens, UniProt P10275); test: biochemical; conditions: read-out: Binding / ================================================= / % Inhibition of Control Specific Binding
[9] = target: T12, H2 (h) (antagonist radioligand) (Homo sapiens, UniProt P25021); test: biochemical; conditions: read-out: Binding / ================================================= / % Inhibition of Control Specific Binding
T12 construct: gene HRH2

[10] = target: T13, CB1 (h) (agonist radioligand) (Homo sapiens, UniProt P21554); test: biochemical; conditions: read-out: Binding / ================================================= / % Inhibition of Control Specific Binding
T13 construct: gene CNR1
T13 sequence (P21554 whole entry): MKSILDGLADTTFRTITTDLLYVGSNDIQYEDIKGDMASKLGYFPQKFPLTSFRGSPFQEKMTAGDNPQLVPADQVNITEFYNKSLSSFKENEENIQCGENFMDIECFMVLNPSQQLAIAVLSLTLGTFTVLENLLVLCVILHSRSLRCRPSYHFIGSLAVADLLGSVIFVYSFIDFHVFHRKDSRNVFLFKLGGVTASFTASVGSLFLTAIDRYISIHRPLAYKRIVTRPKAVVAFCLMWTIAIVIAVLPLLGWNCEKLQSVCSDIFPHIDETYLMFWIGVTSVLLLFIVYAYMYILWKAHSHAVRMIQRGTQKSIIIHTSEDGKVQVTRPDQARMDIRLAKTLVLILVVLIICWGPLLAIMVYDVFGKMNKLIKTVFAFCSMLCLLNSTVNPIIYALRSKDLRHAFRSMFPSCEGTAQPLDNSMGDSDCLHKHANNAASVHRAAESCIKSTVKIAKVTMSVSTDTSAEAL

[11] = target: T14, alpha 2B (h) (antagonist radioligand) (Homo sapiens, UniProt P18089); test: biochemical; conditions: read-out: Binding / ================================================= / % Inhibition of Control Specific Binding
T14 construct: gene ADRA2B

[12] = target: T15, M4 (h) (antagonist radioligand) (Homo sapiens, UniProt P08173); test: biochemical; conditions: read-out: Binding / ================================================= / % Inhibition of Control Specific Binding
T15 construct: gene CHRM4

[13] = target: T16, 5-HT1A (h) (agonist radioligand) (Homo sapiens, UniProt P08908); test: biochemical; conditions: read-out: Binding / ================================================= / % Inhibition of Control Specific Binding
T16 construct: gene HTR1A

[14] = target: T17, mGluR5 (h) (agonist radioligand) (Homo sapiens, UniProt P41594); test: biochemical; conditions: read-out: Binding / ================================================= / % Inhibition of Control Specific Binding
T17 construct: gene GRM5

[15] = target: T18, M1 (h) (antagonist radioligand) (Homo sapiens, UniProt P11229); test: biochemical; conditions: read-out: Binding / ================================================= / % Inhibition of Control Specific Binding
T18 construct: gene CHRM1

[16] = target: T19, beta 2 (h) (antagonist radioligand) (Homo sapiens, UniProt P07550); test: biochemical; conditions: read-out: Binding / ================================================= / % Inhibition of Control Specific Binding
T19 construct: gene ADRB2

[17] = target: T20, D1 (h) (antagonist radioligand) (Homo sapiens, UniProt P21728); test: biochemical; conditions: read-out: Binding / ================================================= / % Inhibition of Control Specific Binding
T20 construct: gene DRD1

[18] = target: T21, kappa (h) (KOP) (agonist radioligand) (Homo sapiens, UniProt P41145); test: biochemical; conditions: read-out: Binding / ================================================= / % Inhibition of Control Specific Binding
T21 construct: gene OPRK1

[19] = target: T22, PPARgamma h) (agonist radioligand) (Homo sapiens, UniProt P37231); test: biochemical; conditions: read-out: Binding / ================================================= / % Inhibition of Control Specific Binding
T22 construct: gene PPARG
T22 sequence (P37231 whole entry): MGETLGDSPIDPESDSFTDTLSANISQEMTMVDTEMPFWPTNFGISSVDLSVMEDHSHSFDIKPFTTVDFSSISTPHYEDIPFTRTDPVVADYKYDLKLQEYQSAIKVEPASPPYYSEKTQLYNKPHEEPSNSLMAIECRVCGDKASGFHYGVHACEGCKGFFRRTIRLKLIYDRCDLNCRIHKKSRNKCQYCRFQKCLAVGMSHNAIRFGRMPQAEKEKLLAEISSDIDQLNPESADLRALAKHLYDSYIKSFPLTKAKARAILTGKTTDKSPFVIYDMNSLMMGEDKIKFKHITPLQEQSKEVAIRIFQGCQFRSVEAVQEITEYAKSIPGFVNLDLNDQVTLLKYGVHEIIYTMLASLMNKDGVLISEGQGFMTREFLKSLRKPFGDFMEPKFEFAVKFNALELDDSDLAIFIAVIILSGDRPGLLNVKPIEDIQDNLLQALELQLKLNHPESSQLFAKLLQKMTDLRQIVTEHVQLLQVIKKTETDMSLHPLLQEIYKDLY

[20] = target: T23, 5-HT2C (h) (antagonist radioligand) (Homo sapiens, UniProt P28335); test: biochemical; conditions: read-out: Binding / ================================================= / % Inhibition of Control Specific Binding
T23 construct: gene HTR2C

[21] = target: T24, alpha 2A (h) (antagonist radioligand) (Homo sapiens, UniProt P08913); test: biochemical; conditions: read-out: Binding / ================================================= / % Inhibition of Control Specific Binding
T24 construct: gene ADRA2A

[22] = target: T25, mu (MOP) (h) (agonist radioligand) (Homo sapiens, UniProt P35372); test: biochemical; conditions: read-out: Binding / ================================================= / % Inhibition of Control Specific Binding
T25 construct: gene OPRM1

[23] = target: T26, ETA (h) (agonist radioligand) (Homo sapiens, UniProt P25101); test: biochemical; conditions: read-out: Binding / ================================================= / % Inhibition of Control Specific Binding
T26 construct: gene EDNRA

PI3Kγ, sequence (P48736 144-1102): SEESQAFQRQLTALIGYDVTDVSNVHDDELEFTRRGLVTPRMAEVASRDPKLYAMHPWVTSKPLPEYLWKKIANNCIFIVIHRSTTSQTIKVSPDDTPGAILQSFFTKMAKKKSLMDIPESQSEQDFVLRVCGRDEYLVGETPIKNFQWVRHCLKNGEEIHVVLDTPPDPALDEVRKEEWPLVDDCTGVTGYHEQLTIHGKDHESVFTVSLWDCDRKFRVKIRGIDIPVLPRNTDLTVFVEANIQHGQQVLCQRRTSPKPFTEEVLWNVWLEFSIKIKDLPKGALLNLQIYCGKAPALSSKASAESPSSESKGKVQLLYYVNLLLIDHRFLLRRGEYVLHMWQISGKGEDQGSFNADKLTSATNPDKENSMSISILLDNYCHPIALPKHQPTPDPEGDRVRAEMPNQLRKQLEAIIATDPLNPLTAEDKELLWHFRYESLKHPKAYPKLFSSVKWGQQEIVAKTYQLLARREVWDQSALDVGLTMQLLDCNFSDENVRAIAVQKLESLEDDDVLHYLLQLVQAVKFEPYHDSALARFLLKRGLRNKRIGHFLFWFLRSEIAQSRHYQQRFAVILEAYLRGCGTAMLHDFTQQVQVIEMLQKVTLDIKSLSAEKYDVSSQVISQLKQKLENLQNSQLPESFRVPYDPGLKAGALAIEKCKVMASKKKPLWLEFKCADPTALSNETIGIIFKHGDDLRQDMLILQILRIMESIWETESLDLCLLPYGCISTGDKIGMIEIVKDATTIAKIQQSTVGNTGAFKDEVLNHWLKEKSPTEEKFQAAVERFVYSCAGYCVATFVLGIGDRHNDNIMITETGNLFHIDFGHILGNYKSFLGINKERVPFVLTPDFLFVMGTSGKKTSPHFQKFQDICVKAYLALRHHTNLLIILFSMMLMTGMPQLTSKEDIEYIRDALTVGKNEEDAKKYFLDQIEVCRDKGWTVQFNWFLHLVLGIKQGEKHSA

C[C@@H](Nc1ncnc2ccc(-c3cnc(Cl)c(NS(C)(=O)=O)c3)cc12)c1ccccc1 [MTX-531, (R)-N-(2-chloro-5-(4-((1-phenylethyl)amino)quinazolin-6-yl)pyridin-3-yl)methane-sulfonamide]
IC50 (PI3Kγ): 8.3 nM | IC50 (HER2): 2500 nM | IC50 (PI3Kβ): 233 nM | IC50 (HER4): > 10000 nM | IC50 (mTOR): 105 nM | inhibition at 10 µM [1]: -17% | inhibition at 10 µM [2]: 1% | inhibition at 10 µM [3]: 2% | inhibition at 10 µM [4]: 12% | inhibition at 10 µM [5]: 0% | inhibition at 10 µM [6]: 1% | inhibition at 10 µM [7]: 2% | inhibition at 10 µM [8]: -1% | inhibition at 10 µM [9]: -1% | inhibition at 10 µM [10]: -2% | inhibition at 10 µM [11]: 2% | inhibition at 10 µM [12]: 5% | inhibition at 10 µM [13]: 6% | inhibition at 10 µM [14]: 5% | inhibition at 10 µM [15]: 22% | inhibition at 10 µM [16]: -6% | inhibition at 10 µM [17]: 2% | inhibition at 10 µM [18]: 7% | inhibition at 10 µM [19]: 48% | inhibition at 10 µM [20]: 4% | inhibition at 10 µM [21]: 5% | inhibition at 10 µM [22]: 25% | inhibition at 10 µM [23]: 1%

Source: publication PMC11357990, “A first-in-class selective inhibitor of EGFR and PI3K offers a single-molecule approach to targeting adaptive resistance” (Nature Cancer, 2024)
